# According to patent US9095136B2, “2-IODO imidazole-derivatives” (BAYER INTELLECTUAL PROPERTY GMBH, priority 2011, dated 2015):
# Key:
# [1] = test system: Uromyces appendiculatus; assay: Example Y: Uromyces test (beans)/protective, comparison; format: in vivo; settings: protective, application rate 10 ppm, evaluation 10 days after inoculation
# Method: Solvents: 24.5 parts by weight of acetone • 24.5 parts by weight of dimethylacetamide Emulsifier: 1 part by weight of alkylaryl polyglycol ether To produce a suitable preparation of active compound, 1 part by weight of active compound is mixed with the stated amounts of solvent and emulsifier, and the concentrate is diluted with water to the desired concentration. To test for protective activity, young plants are sprayed with the preparation of active compound at the stated application rate. […] The plants are then placed in a greenhouse at about 21° C. and a relative atmospheric humidity of about 90%.
# [2] = test system: Leptosphaeria nodorum; assay: Example H: Leptosphaeria nodorum test (wheat)/protective; format: in vivo; settings: protective, 500 ppm, evaluation 8 days after inoculation
# Method: (§1) Solvent: 49 parts by weight of N,N-dimethylacetamide Emulsifier: 1 part by weight of alkylaryl polyglycol ether To produce a suitable preparation of active compound, 1 part by weight of active compound is mixed with the stated amounts of solvent and emulsifier, and the concentrate is diluted with water to the desired concentration. To test for protective activity, young plants are sprayed with the preparation of active compound at the stated application rate. After the spray coating has dried on, the plants are sprayed with a spore suspension of Leptosphaeria nodorum.
# [3] = test system: Puccinia recondita; assay: Example T: preventative in vivo test with Puccinia recondita (brown rust on wheat); settings: 500 ppm, evaluation 10 days after inoculation
# Method: The active compounds tested are prepared by homogenization in a mixture of acetone/Tween/DMSO and then diluted with water to the desired active compound concentration. Wheat plants (cultivar “Scipion”), sown in a 50/50 peat/pozzolana soil substrate and cultivated at 22° C. (12 h)/20° C. (12 h), are treated at the 1-leaf stage (height 10 cm) by spraying with the active compound, prepared as above. As a control, plants are treated with the mixture of acetone/Tween/DMSO/water without the active compound. After 24 hours, the plants are inoculated by spraying the leaves with an aqueous suspension of Puccinia recondita spores.
# [4] = test system: Pyricularia oryzae; format: in vivo; settings: rice, protective, 500 ppm, evaluation 7 days after inoculation
# [5] = log P by HPLC on reversed-phase columns (EEC directive 79/831 Annex V.A8); format: physicochemical
# Method: The log P values were measured according to EEC directive 79/831 Annex V.A8 by HPLC (High Performance Liquid Chromatography) on reversed-phase columns, using the methods below: […] Calibration was carried out using unbranched alkan-2-ones (having from 3 to 16 carbon atoms) with known log P values (the log P values were determined by the retention times using linear interpolation between two successive alkanones). The lambda maX values were determined in the maxima of the chromatographic signals using the UV spectra from 200 nm to 400 nm.
# [6] = test system: Phakopsora pachyrhizi; assay: Example F: Phakopsora test (soya beans)/protective; format: in vivo; settings: protective, 100 ppm, evaluation 7 days after inoculation
# Method: Solvents: 24.5 parts by weight of acetone • 24.5 parts by weight of dimethylacetamide Emulsifier: 1 part by weight of alkylaryl polyglycol ether To produce a suitable preparation of active compound, 1 part by weight of active compound is mixed with the stated amounts of solvent and emulsifier, and the concentrate is diluted with water to the desired concentration. To test for protective activity, young plants are sprayed with the preparation of active compound at the stated application rate.
# [7] = test system: Uromyces appendiculatus; assay: Example W: preventative in vivo test with Uromyces appendiculatus (bean rust); settings: 500 ppm, evaluation 10 days after inoculation
# Method: The active compounds tested are prepared by homogenization in a mixture of acetone/Tween/DMSO and then diluted with water to the desired active compound concentration. Bean plants (cultivar “Saxa”), sown in a 50/50 peat/pozzolana soil substrate and cultivated at 24° C., are treated at the 2-leaf stage (height 9 cm) by spraying with the active compound, prepared as above. As a control, plants are treated with the mixture of acetone/Tween/DMSO/water without the active compound. After 24 hours, the plants are inoculated by spraying the leaves with an aqueous suspension of Uromyces appendiculatus spores.
# [8] = test system: Sphaerotheca fuliginea; assay: Example B: Sphaerotheca test (cucumber)/protective; format: in vivo; settings: protective, 500 ppm, evaluation 7 days after inoculation
# Method: Solvent: 49 parts by weight of N,N-dimethylformamide Emulsifier: 1 part by weight of alkylaryl polyglycol ether To produce a suitable preparation of active compound, 1 part by weight of active compound is mixed with the stated amounts of solvent and emulsifier, and the concentrate is diluted with water to the desired concentration. To test for protective activity, young cucumber plants are sprayed with the preparation of active compound at the stated application rate. 1 day after the treatment, the plants are inoculated with a spore suspension of Sphaerotheca fuliginea. The plants are then placed in a greenhouse at 70% relative air humidity and a temperature of 23° C.
# [9] = test system: Fusarium nivale (var. majus); assay: Example M: Fusarium nivale (var. majus) test (wheat)/protective; format: in vivo; settings: protective, 500 ppm, evaluation 5 days after inoculation
# Method: as §1, with “Fusarium nivale (var. majus).” for “Leptosphaeria nodorum.”
# [10] = test system: Pyricularia oryzae; format: in vivo; settings: rice, preventative, 500 ppm, evaluation 6 days after inoculation
# [11] = test system: Blumeria graminis f.sp. hordei; assay: Example G: Blumeria graminis test (barley)/protective; format: in vivo; settings: protective, 500 ppm, evaluation 7 days after inoculation
# Method: Solvent: 49 parts by weight of N,N-dimethylacetamide Emulsifier: 1 part by weight of alkylaryl polyglycol ether To produce a suitable preparation of active compound, 1 part by weight of active compound is mixed with the stated amounts of solvent and emulsifier, and the concentrate is diluted with water to the desired concentration. To test for protective activity, young plants are sprayed with the preparation of active compound at the stated application rate. After the spray coating has dried on, the plants are dusted with spores of Blumeria graminis f.sp. hordei.
structure (smiles),measurement,setting,value
"OC(Cc1ccccc1Cl)(Cn1ccnc1I)C1(Cl)CC1 (stereo not drawn) [Example 1, 2-(1-chlorocyclopropyl)-1-(2-chlorophenyl)-3-(2-iodo-1H-imidazol-1-yl)propan-2-ol]",Efficacy in %,[1],100%
same,Eff. %,[2],100%
same,Efficacy %,[3],100%
same,Eff. %,[4],95%
same,chromatographic logP,"[5]; pH 2.7, logP",2.35
same,chromatographic logP,"[5]; pH 7.8, logP",3.38
same,Eff. %,[6],98%
same,Efficacy %,[7],100%
same,Eff. %,[8],80%
same,Eff. %,[9],100%
same,Efficacy %,[10],100%
same,Eff. %,[11],100%
